Test results reported in patent US20050089583A1, “Novel herbal composition for the treatment of gastric ulcer” (priority 2003, published 2005).

Legend:
[1] = test system: Cold Restraint Ulcers (CRU); test: Cold restraint ulcer (CRU) model; format: in vivo, rats
Experimental: Method: Adult rats of either sex, weighing 150-175 Gms were fasted for 24 hours with free access to water. The test drugs were administered 45 minutes before immobilizing the animals. The rats were immobilized in the restraint cage at 4° C. in BOD incubator for 2 hrs and were sacrificed immediately after the restraint period. (According to the method of Senay and Levine 1967). The abdomen was cut opened; stomach was taken out and incised along the greater curvature to observe the gastric lesions with the help of Magnascope (5× magnification).
(§1) The following arbitrary scoring system was used to grade the severity and intensity of the lesions. • 1. Shedding of epithelium=10 • 2. Petechial and frank hemorrhages=20 • 3. One or two ulcers=30 • 4. More than two ulcers=40 • 5. Perforated ulcers=50 The presence of any of these lesions was considered as a positive ulcerogenic response which has been shown as percentage of rats showing gastric lesions.
(§2) The severity of ulcers is expressed in terms of ulcer index, which is the mean score of gastric lesions of all the rats in a group which is defined as: • Ulcer Index (U. I.)=Us+Up×10^−1 • Where Us=Mean severity of ulcer score and Up-Percentage of animals with Ulcer incidences.
(§3) The percentage protection is calculated as follows: • Percentage protection ═(C-T/C)×100. • Wherein • C=Number of animals showing ulcer response in control group and • T=Number of animals showing ulcer response in test group.

Histamine induced ulcer = Histamine induced ulcer model; format: in vivo, guinea pig; details: HF2 50 mg/Kg p.o., Omeprazole 10 mg/kg p.o.
Experimental: Method: Animals were fasted for 24 hours with access to water. The drug was given orally 1 hour prior to the histamine administration. Histamine was administered in a dose of 0.25 mg/Kg, i.m. at 30 minutes interval-for 7 times and it induced 100% duodenal ulceration in guinea pig (According to the method of Watt and Eagleton 1964)^4. The animals were sacrificed after half an hour of last injection under ether anesthesia. The stomach along with duodenum was removed washed thoroughly and examined for the lesions and ulcer index with protection index was calculated. The effect of the herbal composition “HF2” and the standard drug “Omeprazole” against Histamine induced ulcer model is given in Table 4.

[2] = test system: aspirin induced gastric ulcer; test: Aspirin induced gastric ulcer model; format: in vivo, rats
From the text: as §1, §2, §3
Method: Gastric ulceration was induced by aspirin according to the method of Djahanguiri (1969). Aspirin (150 mg/Kg.) was administered per orally as a suspension in gum-acacia and the animal was sacrificed 5 hr. after the aspirin treatment and the ulcer index with protection index were calculated.

[3] = HF 2 100 mg/Kg p.o., Omeprazole 10 mg/Kg p.o.

With COc1ccc2[nH]c([S+]([O-])Cc3ncc(C)c(OC)c3C)nc2c1 (stereo not shown) [Omeprazole] the “protection against cold restraint ulcer model” value [1] was 54.03%, the “Percentage of ulcer incidence” value ([1]; HF2 50 mg/Kg p.o., Omeprazole 10 mg/Kg p.o.) was 50% and the “Ulcer severity (type of lesions) score 10 (No. of rats showing lesions/No. of rats tested)” value ([1]; score 10 = shedding of epithelium, HF2 50 mg/Kg p.o., Omeprazole 10 mg/Kg p.o., 4° C., 2 hrs restraint) was 3/10. For the same compound, the “Ulcer severity (type of lesions) score 20 (No. of rats showing lesions/No. of rats tested)” value ([1]; score 20 = petechial and frank hemorrhages, HF2 50 mg/Kg p.o., Omeprazole 10 mg/Kg p.o.) was 2/10, the “Percentage of ulcer incidence” value (Histamine induced ulcer) was 33.3% and the “Ulcer severity (type of lesions) score 20 (No. Guinea pig showing lesions/No. of Guinea pig tested)” value (Histamine induced ulcer; Histamine 0.25 mg/Kg i.m. × 7) was 1/3. The “protection against aspirin induced ulcer model” value [2] was 39.41%, the “Ulcer severity (type of lesions) score 20 (No. of rats showing lesions/No. of rats tested)” value ([2]; Aspirin 150 mg/Kg p.o., HF 2 100 mg/Kg p.o., Omeprazole 10 mg/Kg p.o.) was 2/6 and the “Ulcer severity (type of lesions) score 10 (No. of rats showing lesions/No. of rats tested)” value ([2]; Aspirin 150 mg/Kg p.o., HF 2 100 mg/Kg p.o., Omeprazole 10 mg/Kg p.o., 5 hr) was 2/6. The “Mean severity of ulcer score” value [2, 3] was 10.0, the “Percentage of ulcer incidence” value [2, 3] was 66.7% and the Protection index [2, 3] was 39.41. The Ulcer index [2, 3] was 7.67.
